Measurements taken from ChEMBL document CHEMBL1909046, “DrugMatrix in vitro pharmacology data”.

Legend:
Cytochrome P450 2A6 = target: T1, Cytochrome P450 2A6 (Homo sapiens, UniProt P11509); conditions: bti-tn-5b1-4; note: in other assays of this panel Not Active means under 50% inhibition at 10 µM
T1 sequence (P11509 whole entry): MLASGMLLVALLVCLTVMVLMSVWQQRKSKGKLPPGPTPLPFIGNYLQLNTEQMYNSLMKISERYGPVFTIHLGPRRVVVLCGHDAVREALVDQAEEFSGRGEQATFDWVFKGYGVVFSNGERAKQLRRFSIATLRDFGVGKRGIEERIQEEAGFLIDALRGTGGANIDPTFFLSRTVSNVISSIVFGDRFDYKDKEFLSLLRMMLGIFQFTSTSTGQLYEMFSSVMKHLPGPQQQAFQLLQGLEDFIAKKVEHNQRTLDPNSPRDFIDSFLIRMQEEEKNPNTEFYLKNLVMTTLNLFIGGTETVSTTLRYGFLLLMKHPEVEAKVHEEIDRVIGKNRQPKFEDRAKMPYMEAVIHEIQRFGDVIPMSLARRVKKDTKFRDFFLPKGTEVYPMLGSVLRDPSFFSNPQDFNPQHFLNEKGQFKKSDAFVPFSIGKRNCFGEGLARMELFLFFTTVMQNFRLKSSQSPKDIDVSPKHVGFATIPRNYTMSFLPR

[1] = DRUGMATRIX: Platelet-Derived Growth Factor (PDGF) radioligand binding (ligand: [125I] PDGF); format: cell-based; conditions: nih3t3; Not Active = under 50% inhibition at 10 µM
[2] = target: Sodium-dependent noradrenaline transporter (Homo sapiens, UniProt P23975); assay: DRUGMATRIX: Norepinephrine Transporter radioligand binding (ligand: [125I] RTI-55); format: cell membranes, MDCK, Membrane; conditions: Not Active = under 50% inhibition at 10 µM; for Ki: read-out: Ki
Sodium-dependent noradrenaline transporter, sequence (P23975 whole entry): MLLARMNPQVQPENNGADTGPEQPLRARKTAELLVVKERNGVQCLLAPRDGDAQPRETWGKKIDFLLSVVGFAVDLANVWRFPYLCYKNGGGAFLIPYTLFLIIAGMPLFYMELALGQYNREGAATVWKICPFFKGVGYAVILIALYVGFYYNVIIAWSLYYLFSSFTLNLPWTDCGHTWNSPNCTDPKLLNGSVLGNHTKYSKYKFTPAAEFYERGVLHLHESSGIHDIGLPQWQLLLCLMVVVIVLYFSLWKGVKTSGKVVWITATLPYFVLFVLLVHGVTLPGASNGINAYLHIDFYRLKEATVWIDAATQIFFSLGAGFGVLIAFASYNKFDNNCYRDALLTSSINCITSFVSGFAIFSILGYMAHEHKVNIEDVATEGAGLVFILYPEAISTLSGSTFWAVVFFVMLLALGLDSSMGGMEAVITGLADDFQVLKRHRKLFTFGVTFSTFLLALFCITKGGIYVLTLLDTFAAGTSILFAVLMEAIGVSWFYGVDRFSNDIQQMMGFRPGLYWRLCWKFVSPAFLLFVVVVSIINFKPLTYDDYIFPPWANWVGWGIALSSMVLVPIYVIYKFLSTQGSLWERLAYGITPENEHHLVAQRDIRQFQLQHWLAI

Adenosine receptor A3 = target: T2, Adenosine receptor A3 (Homo sapiens, UniProt P0DMS8); format: cell membranes, CHO-K1, Membrane; conditions: for Ki: read-out: Ki;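 for all read-outs here: radioligand binding assay with AB-MECA serving as the labeled ligand; in other assays of this panel Not Active means under 50% inhibition at 10 µM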
T2 sequence (P0DMS8 whole entry): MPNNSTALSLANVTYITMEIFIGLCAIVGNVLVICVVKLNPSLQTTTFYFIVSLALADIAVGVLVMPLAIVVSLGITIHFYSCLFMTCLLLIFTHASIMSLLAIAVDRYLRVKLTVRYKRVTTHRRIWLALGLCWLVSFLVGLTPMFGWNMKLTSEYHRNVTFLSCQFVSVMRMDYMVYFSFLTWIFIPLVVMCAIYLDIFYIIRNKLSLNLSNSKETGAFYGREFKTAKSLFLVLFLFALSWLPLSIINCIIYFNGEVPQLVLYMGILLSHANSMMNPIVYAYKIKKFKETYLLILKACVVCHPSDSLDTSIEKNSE

[3] = target: Matrix metalloproteinase-9 (Homo sapiens, UniProt P14780); assay: biochemical; format: cell-based;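 note: inhibition of isolated MMP-9 enzyme activity toward a synthetic peptide substrate, from the DrugMatrix protease screening panel; in other assays of this panel Not Active means under 50% inhibition at 10 µM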
Matrix metalloproteinase-9, sequence (P14780 whole entry): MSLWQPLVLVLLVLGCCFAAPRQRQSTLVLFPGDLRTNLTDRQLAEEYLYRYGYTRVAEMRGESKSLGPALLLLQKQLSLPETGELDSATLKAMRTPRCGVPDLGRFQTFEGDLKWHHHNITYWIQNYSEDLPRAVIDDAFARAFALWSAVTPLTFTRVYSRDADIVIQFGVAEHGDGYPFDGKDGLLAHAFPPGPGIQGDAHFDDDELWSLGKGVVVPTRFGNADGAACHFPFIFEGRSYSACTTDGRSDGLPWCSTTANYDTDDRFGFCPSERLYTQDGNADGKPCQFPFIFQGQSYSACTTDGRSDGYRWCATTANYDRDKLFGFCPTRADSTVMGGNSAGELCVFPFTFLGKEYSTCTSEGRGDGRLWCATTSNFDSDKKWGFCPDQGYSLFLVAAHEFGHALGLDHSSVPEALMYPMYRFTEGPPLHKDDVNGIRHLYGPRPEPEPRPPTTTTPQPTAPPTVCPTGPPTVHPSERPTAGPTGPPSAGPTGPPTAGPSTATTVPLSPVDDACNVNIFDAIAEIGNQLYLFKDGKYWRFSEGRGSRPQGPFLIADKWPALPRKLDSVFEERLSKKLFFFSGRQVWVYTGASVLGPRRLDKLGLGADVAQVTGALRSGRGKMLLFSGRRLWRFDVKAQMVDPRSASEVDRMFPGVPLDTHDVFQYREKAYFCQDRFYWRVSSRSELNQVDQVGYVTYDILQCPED

[4] = target: C-C chemokine receptor type 2 (Homo sapiens, UniProt P41597); format: cell membranes, CHO-K1, Membrane; conditions: cho-k1; note: in other assays of this panel Not Active means under 50% inhibition at 10 µM
C-C chemokine receptor type 2, sequence (P41597 whole entry): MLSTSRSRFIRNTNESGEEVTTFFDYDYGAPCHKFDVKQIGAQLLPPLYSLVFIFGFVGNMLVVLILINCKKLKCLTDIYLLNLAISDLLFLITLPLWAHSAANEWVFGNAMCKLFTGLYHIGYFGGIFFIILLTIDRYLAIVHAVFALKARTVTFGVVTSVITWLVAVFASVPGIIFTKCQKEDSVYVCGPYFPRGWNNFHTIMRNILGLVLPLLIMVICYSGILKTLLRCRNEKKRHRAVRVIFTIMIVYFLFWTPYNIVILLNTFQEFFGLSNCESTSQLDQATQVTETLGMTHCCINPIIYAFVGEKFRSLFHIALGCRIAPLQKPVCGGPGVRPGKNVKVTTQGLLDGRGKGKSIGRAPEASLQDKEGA

| Compound | IC50 (Cytochrome P450 2A6) | Ki (Cytochrome P450 2A6) | IC50 [1] | Ki [1] | IC50 ([2]; read-out: IC50) [µM] | Ki [2] [µM] | IC50 (Adenosine receptor A3; cho-k1) | IC50 [3] | IC50 [4] | IC50 ([2]; mdck) | IC50 (Adenosine receptor A3; read-out: IC50) [µM] | Ki (Adenosine receptor A3) [µM] |
| --- | --- | --- | --- | --- | --- | --- | --- | --- | --- | --- | --- | --- |
| COc1cc(N)nc2[nH]c(-c3ccc(F)cc3)c(-c3ccncc3)c12 | Not Active | Not Active | Not Active | Not Active | 1.07 | 1.06 | Not Active | Not Active | Not Active |  |  |  |
| CNS(=O)(=O)Cc1ccc2[nH]cc(CCN(C)C)c2c1 | Not Active | Not Active | Not Active | Not Active |  |  | Not Active | Not Active | Not Active | Not Active |  |  |
| CCCc1nn(C)c2c(=O)[nH]c(-c3cc(S(=O)(=O)N4CCN(C)CC4)ccc3OCC)nc12 | Not Active | Not Active | Not Active | Not Active |  |  | Not Active | Not Active | Not Active | Not Active |  |  |
| COc1ccc(/C=C/C(=O)Nc2ccccc2C(=O)O)cc1OC | Not Active | Not Active | Not Active | Not Active |  |  | Not Active | Not Active | Not Active | Not Active |  |  |
| CCOC(N)=O | Not Active | Not Active | Not Active | Not Active |  |  | Not Active | Not Active | Not Active | Not Active |  |  |
| CC(=O)Nc1nnc(S(N)(=O)=O)s1 [ACETAZOLAMIDE] | Not Active | Not Active |  |  |  |  | Not Active | Not Active | Not Active | Not Active |  |  |
| O=c1[nH]c2ccccc2n1CCCN1CCC(n2c(=O)[nH]c3cc(Cl)ccc32)CC1 [DOMPERIDONE] |  |  |  |  |  |  | Not Active | Not Active | Not Active |  |  |  |
| CC1=C(CC(=O)O)c2cc(F)ccc2/C1=C\c1ccc(S(C)(=O)=O)cc1 [EXISULIND] | Not Active | Not Active | Not Active | Not Active |  |  | Not Active | Not Active | Not Active | Not Active |  |  |
| CC(C)OC(=O)C(C)(C)Oc1ccc(C(=O)c2ccc(Cl)cc2)cc1 [FENOFIBRATE] | Not Active | Not Active |  |  |  |  |  | Not Active | Not Active |  | 5.7 | 3.22 |
| OCCN1CCN(CCCN2c3ccccc3Sc3ccc(C(F)(F)F)cc32)CC1 [FLUPHENAZINE] | Not Active | Not Active |  |  | 1.96 | 1.95 |  | Not Active | Not Active |  | 11.9 | 6.75 |
| CN1C2CCCC1CC(NC(=O)c1nn(C)c3ccccc13)C2 (centres undefined) [GRANISETRON] | Not Active | Not Active |  |  |  |  | Not Active | Not Active | Not Active | Not Active |  |  |
| Nc1nc2c(c(=O)[nH]1)N(C=O)C(CNc1ccc(C(=O)N[C@@H](CCC(=O)O)C(=O)O)cc1)CN2 (some centres undefined) [LEUCOVORIN] | Not Active | Not Active | Not Active | Not Active |  |  | Not Active | Not Active | Not Active | Not Active |  |  |
| C[C@@H](O)[C@H]1C(=O)N2C(C(=O)O)=C(S[C@@H]3CN[C@H](C(=O)N(C)C)C3)[C@H](C)[C@H]12 [MEROPENEM] | Not Active | Not Active | Not Active | Not Active |  |  | Not Active | Not Active | Not Active | Not Active |  |  |
| CC[C@@H](CO)NC(=O)[C@@H]1C=C2c3cccc4c3c(cn4C)C[C@H]2N(C)C1 [METHYSERGIDE] | Not Active | Not Active |  |  |  |  | Not Active | Not Active | Not Active | Not Active |  |  |
| CCN(CC)CC#CCOC(=O)C(O)(c1ccccc1)C1CCCCC1 (centres undefined) [OXYBUTYNIN] | Not Active | Not Active |  |  |  |  | Not Active | Not Active | Not Active |  |  |  |
| O=P(O)(O)C(O)(Cc1cccnc1)P(=O)(O)O [RISEDRONIC ACID] | Not Active | Not Active | Not Active | Not Active |  |  | Not Active | Not Active | Not Active | Not Active |  |  |
| CN(CCOc1ccc(CC2SC(=O)NC2=O)cc1)c1ccccn1 (centres undefined) [ROSIGLITAZONE] | Not Active | Not Active | Not Active | Not Active |  |  | Not Active | Not Active | Not Active | Not Active |  |  |
| C=C(C)[C@H]1Cc2c(ccc3c2O[C@@H]2COc4cc(OC)c(OC)cc4[C@@H]2C3=O)O1 [ROTENONE] | Not Active | Not Active | Not Active | Not Active |  |  | Not Active | Not Active | Not Active | Not Active |  |  |
| C#CCN(C)[C@H](C)Cc1ccccc1 [SELEGILINE] | Not Active | Not Active | Not Active | Not Active |  |  | Not Active | Not Active | Not Active | Not Active |  |  |
| CO[C@H]1C[C@@H]2CC[C@@H](C)[C@@](O)(O2)C(=O)C(=O)N2CCCC[C@H]2C(=O)O[C@H]([C@H](C)C[C@@H]2CC[C@@H](O)[C@H](OC)C2)CC(=O)[C@H](C)/C=C(\C)[C@@H](O)[C@@H](OC)C(=O)[C@H](C)C[C@H](C)/C=C/C=C/C=C/1C [SIROLIMUS] | Not Active | Not Active | Not Active | Not Active |  |  | Not Active | Not Active | Not Active | Not Active |  |  |
| CN[C@@H]1[C@H](O)[C@H](NC)[C@H]2O[C@@]3(O)C(=O)C[C@@H](C)O[C@H]3O[C@@H]2[C@H]1O [SPECTINOMYCIN] | Not Active | Not Active | Not Active | Not Active |  |  | Not Active | Not Active | Not Active | Not Active |  |  |
| Nc1ccc(S(=O)(=O)Nc2ncccn2)cc1 [SULFADIAZINE] | Not Active | Not Active | Not Active | Not Active |  |  | Not Active | Not Active | Not Active | Not Active |  |  |
| COc1ncnc(NS(=O)(=O)c2ccc(N)cc2)c1OC [SULFADOXINE] | Not Active | Not Active | Not Active | Not Active |  |  | Not Active | Not Active | Not Active | Not Active |  |  |
| Nc1ccc(S(=O)(=O)Nc2nccs2)cc1 [SULFATHIAZOLE] | Not Active | Not Active | Not Active | Not Active |  |  | Not Active | Not Active | Not Active | Not Active |  |  |
| C[C@]12CC[C@H]3[C@@H](CCC4=CC(=O)CC[C@@]43C)[C@@H]1CC[C@@H]2O [TESTOSTERONE] | Not Active | Not Active | Not Active | Not Active |  |  | Not Active | Not Active | Not Active | Not Active |  |  |
| CC(C)(C)NC[C@H](O)COc1nsnc1N1CCOCC1 [TIMOLOL] | Not Active | Not Active | Not Active | Not Active |  |  | Not Active | Not Active | Not Active | Not Active |  |  |
| CCS(=O)(=O)CCn1c([N+](=O)[O-])cnc1C [TINIDAZOLE] |  |  | Not Active | Not Active |  |  | Not Active | Not Active | Not Active | Not Active |  |  |
| C[C@@H]1C[C@H]2[C@@H]3CCC4=CC(=O)C=C[C@]4(C)C3=CC[C@]2(C)[C@H]1C(=O)CN1CCN(c2cc(N3CCCC3)nc(N3CCCC3)n2)CC1 [TIRILAZAD] | Not Active | Not Active | Not Active | Not Active |  |  | Not Active | Not Active | Not Active | Not Active |  |  |
| O=c1n(CCCN2CCN(c3cccc(Cl)c3)CC2)nc2ccccn12 [TRAZODONE] | Not Active | Not Active |  |  |  |  | Not Active | Not Active | Not Active | Not Active |  |  |
| COc1ccc(CN2CCNCC2)c(OC)c1OC [TRIMETAZIDINE] |  |  | Not Active | Not Active |  |  | Not Active | Not Active | Not Active | Not Active |  |  |
